Data reported in patent US6855710B2, “Substituted indolines with an inhibitory effect on various kinases and complexes of CDKs” (Boehringer Ingelheim Pharma KG, priority 1998, dated 2005).

Question: For `CCCCNCc1ccc(N/C(=C2\C(=O)Nc3ccc([N+](=O)[O-])cc32)c2ccccc2)cc1` [Example 166, (Z)-3-[1-(4-butylaminomethyl-phenylamino)-1-phenyl-methylidene]-5-nitro-2-indolinone], which melting point is on record?
Answer: 183 °C

Question: With `O=C1Nc2ccc([N+](=O)[O-])cc2/C1=C(/Nc1ccc(CN2CCSCC2)cc1)c1ccccc1` [Example 229, (Z)-3-[1-(4-thiomorpholinomethyl-phenylamino)-1-phenyl-methylidene]-5-nitro-2-indolinone] as the molecule, how does the melting point read?
Answer: 276 to 277 °C

Question: With `CN(C(=O)CN1CCCC1)c1ccc(N/C(=C2\C(=O)Nc3ccccc32)c2ccccc2)cc1` [Example 369, (Z)-3-{1-[4-(N-(pyrrolidin-1-ylmethylcarbonyl)-N-methyl-amino)-phenylamino]-1-phenyl-methylidene}-2-indolinone] as the molecule, how does the melting point read?
Answer: 253 to 255 °C

Question: For `Cc1ccc(S(=O)(=O)N(CCN(C)C)c2ccc(N/C(=C3\C(=O)Nc4ccccc43)c3ccccc3)cc2)cc1` [Example 454, (Z)-3-[1-(4-(N-(2-dimethylaminoethyl)-N-(p-tolylsulphonyl)-amino)-phenylamino)-1-phenyl-methylidene]-2-indolinone], which melting point is on record?
Answer: 213 to 215 °C

Question: For `O=C1Nc2ccc([N+](=O)[O-])cc2/C1=C(/Nc1ccc(CCN2CCCCCC2)cc1)c1ccccc1` [Example 265, (Z)-3-{1-[4-(2-hexamethyleneimino-ethyl)-phenylamino]-1-phenyl-methylidene}-5-nitro-2-indolinone], which melting point is on record?
Answer: 217 to 222 °C

Question: For `CN(C)CCN(C)C(=O)CN(c1ccc(N/C(=C2\C(=O)Nc3ccc([N+](=O)[O-])cc32)c2ccccc2)cc1)S(C)(=O)=O` [Example 294, (Z)-3-{1-[4-(N—((N-(2-dimethylaminoethyl)-N-methyl-amino)-carbonylmethyl)-N-methylsulphonyl-amino)-phenylamino]-1-phenyl-methylidene}-5-nitro-2-indolinone], which melting point is on record?
Answer: 138 to 140 °C

Question: For `CN(c1cccc(N/C(=C2\C(=O)Nc3ccccc32)c2ccccc2)c1)S(C)(=O)=O` [Example 184, (Z)-3-{1-[3-(N-methyl-N-methylsulphonyl-amino)-phenylamino]-1-phenyl-methylidene}-2-indolinone], which melting point is on record?
Answer: 261 °C

Question: Which melting point does the source give for `NS(=O)(=O)c1ccc(N/C(=C2\C(=O)Nc3ccccc32)c2ccccc2)cc1` [Example 396, (Z)-3-{1-[4-(aminosulphonyl)-phenylamino]-1-phenyl-methylidene}-2-indolinone] here?
Answer: 254 °C

Question: Which melting point does the source give for `CCC1CCN(Cc2ccc(N/C(=C3\C(=O)Nc4ccc([N+](=O)[O-])cc43)c3ccccc3)cc2)CC1` [Example 175, (Z)-3-{1-[4-(4-ethylpiperidinomethyl)-phenylamino]-1-phenyl-methylidene}-5-nitro-2-indolinone] here?
Answer: 225 to 227 °C

Question: Which melting point does the source give for `O=C1Nc2ccccc2/C1=C(/Nc1ccc(S(=O)(=O)N2CCCC2)cc1)c1ccccc1` [Example 397, (Z)-3-{1-[4-(pyrrolidin-1-ylsulphonyl)-phenylamino]-1-phenyl-methylidene}-2-indolinone] here?
Answer: 293 to 294 °C

Question: For `Nc1cccc(N/C(=C2\C(=O)Nc3ccccc32)c2ccccc2)c1` [Example 69, (Z)-3-[1-(3-aminophenylamino)-1-phenyl-methylidene]-2-indolinone], which melting point is on record?
Answer: 267 to 268 °C

Question: With `CN1C(=O)/C(=C(\Nc2cccc(C#N)c2)c2ccccc2)c2ccccc21` [Example 73, (Z)-1-methyl-3-[1-(3-cyanophenylamino)-1-phenyl-methylidene]-2-indolinone] as the molecule, how does the melting point read?
Answer: 158 to 160 °C

Question: For `CCOC(=O)CNCCc1ccc(N/C(=C2\C(=O)Nc3ccc([N+](=O)[O-])cc32)c2ccccc2)cc1` [Example 178, (Z)-3-{1-[4-(2-ethoxycarbonylmethylamino-ethyl)-phenylamino]-1-phenyl-methylidene}-5-nitro-2-indolinone], which melting point is on record?
Answer: 139 to 140 °C
